Consider 5 compounds from patent US10022453B2 (BAYER PHARMA AKTIENGESELLSCHAFT, priority 2013, dated 2018).

One data set deals with NCI-H292. The data set can be described thus: Cytotoxic effects, MTT assay. The class given is cell-based. The settings on record: Homo sapiens, 72 h incubation. As for the experimental part:
The cells are cultivated by a standard method, as indicated in the […] (ATCC) for the respective cell lines.
At the end of the selected incubation time, the MTT reagent is incubated with the cells for 4 h, followed by lysis of the cells overnight by addition of the detergent. […] The proliferation of cells which were not treated with test substance but were otherwise identically treated was defined as the 100% figure.
In general terms: Tetrazolium assays rely on reduction of a dye to a coloured formazan, in cell work by metabolically active cells.

The target in data set [1] is T1, human kinesin spindle protein KSP/Eg5 (Homo sapiens, UniProt P52732).
T1 construct: The motor domain of the human kinesin spindle protein KSP/Eg5; purchased tebu-bio/Cytoskeleton Inc 027EG01-XL
T1 sequence (P52732 18-359 limits assumed): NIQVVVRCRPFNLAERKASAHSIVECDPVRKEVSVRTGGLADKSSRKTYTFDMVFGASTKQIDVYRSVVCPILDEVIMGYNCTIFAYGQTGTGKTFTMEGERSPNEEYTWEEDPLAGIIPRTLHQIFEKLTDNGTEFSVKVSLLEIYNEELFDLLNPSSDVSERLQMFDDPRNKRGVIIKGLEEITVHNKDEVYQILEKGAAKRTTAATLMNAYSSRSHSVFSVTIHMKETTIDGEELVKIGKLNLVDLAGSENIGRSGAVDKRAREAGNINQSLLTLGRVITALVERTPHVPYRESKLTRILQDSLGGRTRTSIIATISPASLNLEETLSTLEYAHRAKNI
Nature of the data set: Inhibition of the kinesin spindle protein KSP/Eg5 (ATPase, malachite green). The data set is classed as biochemical. To be noted: 10 nM KSP motor domain, 500 μM ATP, 2 h RT. The essentials:
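KSP/Eg5 motor domain (10 nM) preincubated 5 min at RT with 50 μg/ml taxol-stabilized bovine or porcine microtubules in 15 mM PIPES pH 6.8, 5 mM MgCl2, 10 mM DTT. IC50 = mean of three experiments.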

A short description of data set [2]: Cell permeability, flux assay using Caco-2 cells. The settings on record: human, Caco-2. For orientation: Caco-2 monolayers are a common model of the intestinal barrier.

Turning to `C[C@@H](NC(=O)[C@@H](N)CCN(C(=O)CO)[C@@H](c1nc(-c2cc(F)ccc2F)cn1Cc1ccccc1)C(C)(C)C)C(=O)NCCCC[C@H](N)C(=O)O.O=C(O)C(F)(F)F` [Example 159, N^6-(N-{(2S)-2-Amino-4-[{(1R)-1-[1-benzyl-4-(2,5-difluorophenyl)-1H-imidazol-2-yl]-2,2-dimethylpropyl}(glycoloyl)amino]butanoyl}-D-alanyl)-L-lysine/trifluoroacetic acid (1:1)], the IC50 in the data set with NCI-H292 amounted to 114 nM; in data set [1], 0.311 nM. Besides, the Papp B→A at 2 h in data set [2] is 0.7 ×10⁻⁶ cm/s. The efflux ratio at 2 h in data set [2] was 6.1.
`CC(C)[C@H](NC(=O)CCCCCN1C(=O)CC(SC[C@H](N)C(=O)O)C1=O)C(=O)N[C@@H](C)C(=O)N[C@@H](CCCCNC(=O)CCNC(=O)[C@@H](N)CCN(C(=O)CO)[C@@H](c1cc(-c2cc(F)ccc2F)cn1Cc1ccccc1)C(C)(C)C)C(=O)O` (stereo partly drawn) [Example 160, N^6-(N-{(2S)-2-Amino-4-[{(1R)-1-[1-benzyl-4-(2,5-difluorophenyl)-1H-pyrrol-2-yl]-2,2-dimethylpropyl}(glycoloyl)amino]butanoyl}-beta-alanyl)-N^2-N-{[6-(3-{[(2R)-2-amino-2-carboxyethyl]sulfanyl}-2,5-dioxopyrrolidin-1-yl)hexanoyl]-L-valyl-L-alanyl}-L-lysine/trifluoroacetic acid (1:1)]: the concentration for half-maximal inhibition (IC50) in the data set with NCI-H292 was no less than 500 nM; in data set [1], 0.681 nM. In data set [2], the Papp B→A at 2 h was found to be 0.16 ×10⁻⁶ cm/s. For the same compound, the efflux ratio at 2 h in data set [2] is 1.
On to `CC(C)(C)[C@H](c1cc(-c2cc(F)ccc2F)cn1Cc1ccccc1)N(CC[C@H](N)C(=O)NCCN)C(=O)CO.O=C(O)C(F)(F)F` [Example 198], for which the IC50 in the data set on NCI-H292 was 19.5 nM. This compound yielded a 50% inhibitory concentration (IC50) in data set [1] of 10.7 nM. In data set [2], the Papp B→A at 2 h came out at 51.9 ×10⁻⁶ cm/s and the efflux ratio at 2 h was found to be 34.
The corresponding values for `CC(C)(C)[C@H](c1cc(-c2cc(F)ccc2F)cn1Cc1ccccc1)N(CCCN)C(=O)CSC[C@H](NC(=O)CCOCCOCCOCCOCCNC(=O)CCN1C(=O)CC(SC[C@H](N)C(=O)O)C1=O)C(=O)O.O=C(O)C(F)(F)F.O=C(O)C(F)(F)F` (stereo partly drawn) [Example 226, (2R)-22-[(3R/S)-3-{[(2R)-2-Amino-2-carboxyethyl]sulphanyl}-2,5-dioxopyrrolidin-1-yl]-2-[({2-[(3-aminopropyl){(1R)-1-[1-benzyl-4-(2,5-difluorophenyl)-1H-pyrrol-2-yl]-2,2-dimethylpropyl}amino]-2-oxoethyl}sulphanyl)methyl]-4,20-dioxo-7,10,13,16-tetraoxa-3,19-diazadocosan-1-oic acid/trifluoroacetic (1:2)] are 222 nM, 1.49 nM, 0.3 ×10⁻⁶ cm/s and 0.2.
In the data set with NCI-H292, `CC(C)(C)[C@H](c1cc(-c2cc(F)ccc2F)cn1Cc1ccccc1)N(CCCN)C(=O)CSCCC(N)C(=O)O.O=C(O)C(F)(F)F.O=C(O)C(F)(F)F` (stereo partly drawn) [Example 232, S-{2-[(3-Aminopropyl){(1R)-1-[1-benzyl-4-(2,5-difluorophenyl)-1H-pyrrol-2-yl]-2,2-dimethylpropyl}amino]-2-oxoethyl}homocysteine/trifluoroacetic acid (1:2)] showed a half-maximal inhibitory concentration (IC50) of 15.5 nM. In data set [1], inhibition was half-maximal at 2.2 nM (IC50). Also, in data set [2], the Papp B→A at 2 h turned out to be 4.9 ×10⁻⁶ cm/s and the efflux ratio at 2 h is 14.

Broadly, the IC50 is the concentration that gives 50% inhibition. For orientation: Papp B→A means the apparent permeability from the basolateral to the apical side of a cell layer. As usually defined, the efflux ratio is a quotient of directional permeabilities that is used to spot active efflux.
